One may read the IC50 as the concentration at which inhibition is half-maximal. The term EC50 denotes the concentration needed to bring the measured effect to its halfway point.

Bridge positions count the residues as written; N and C are the ends. Square brackets hold non-standard residues; d marks the D form. Peptide text beside a SMILES is read from it. S5 = C=CCCC[C@](C)(N)C(=O)O; Nle = CCCC[C@H](N)C(=O)O

The target in assay [1] is T1, flag-tagged HIF1α (AA 786-826) / His6-tagged p300 (AA 323-423) complex (Homo sapiens, UniProt Q09472).
T1 construct: His6-tagged p300 (AA 323-423); made in house; host or cells: E. coli (pETDuet vector)
As to the kind of experiment: HIF1α p300 displacement assay (TR FRET, +CHAPS). It counts as binding. Conditions: read-out: IC50 (nM) (HIF1α_p300 Displacement + CHAPS). An outline of the steps: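 The co-expressed flag-HIF1α (786-826)/His6-p300 (323-423) complex, purified from E. coli with 0.1 mM ZnSO4, was used at 300 nM final with competitor peptides for 1 h at room temperature. Buffer was 150 mM NaCl, 20 mM HEPES pH 7.4, 7.5 mM CHAPS and 1 mM DTT. Anti-Flag-K (0.5 μM) and anti-His-D2 (4 nM) were then added for 2 h, and IC50s were fitted from the TR-FRET ratio.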
Background: Time-resolved FRET reads energy transfer from a long-lived donor to a nearby acceptor.

In assay [2] the test system is HRE-bla ME-180 cells. As to the kind of experiment: Cell proliferation assay (viability, MTT, 1% FBS). It counts as cell-based, human. In outline: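 ME-180 cells (2×10^4/well) in Opti-MEM with 1% FBS were pretreated 16 h under normoxia (21% O2), vehicle 0.5% DMSO final. Incubation then continued under normoxia or hypoxia (1% O2); viable cells quantified by MTT-type CellTiter 96 assay.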

In assay [3] the test system is HRE-bla ME-180 cells. Nature of the assay: Reporter gene assay (HRE-bla ME-180 HIF reporter, GeneBLAzer). Format: cell-based, human. Conditions: for EC50: 24 hour normoxia. An outline of the steps: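 A FRET β-lactamase readout of HIF transcription was used. After compound treatment in 0.3% DMSO/media under normoxic conditions, 20 μl of 6× LiveBLAzer-FRET B/G (CCF4-AM) substrate was added. Plates sat 3 hr at room temperature in the dark and were read at 409 Ex/460Em and 409Ex/530Em on a Synergy 2. Inhibition was compared against DMSO vehicle controls, with chetomin as positive control.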
In general terms: A reporter such as luciferase makes a cellular process visible.

Turning to `CCCC[C@H](NC(=O)[C@H](CCC(=O)O)NC(=O)[C@@H](NC(=O)[C@@H](NC(=O)[C@H](CC(C)C)NC(=O)[C@]1(C)CCCC=CCCC[C@](C)(NC(=O)[C@H](CCC(=O)O)NC(=O)[C@H](CC(=O)O)NC(=O)[C@@H](NC(=O)[C@H](Cc2ccccc2)NC(C)=O)[C@@H](C)CC)C(=O)N[C@@H](C(C)C)C(=O)N[C@@H](CC(C)C)C(=O)N[C@@H](CCCC)C(=O)N1)C(C)C)[C@@H](C)CC)C(=O)N[C@@H](C)C(=O)N[C@@H](CC(C)C)C(N)=O` [SP-111] (Ac-FIDE[S5]VL[Nle][S5]LVIE[Nle]AL-NH2; staple 5-9), the IC50 in assay [1] was in the range of 200 to 400 nM. Further, the “Viability 1% FBS AVG (MTT V3-24 hr Normoxia) (μM)” value (“Viability 1% FBS AVG” for short) in assay [2] was “++++ (≥30: ++++)”. Besides, in assay [3], the “18 h Avg % max inhibition at top conc (HIF Rptr-24 hrs normoxia) (μM)” value (shortened to “18 h Avg % max inhibition at top conc”) is on record as “++++ (≥50: ++++)” and the EC50 is greater than 30 µM.
The corresponding values for `CC[C@H](C)[C@H](NC(=O)[C@H](Cc1ccccc1)NC(C)=O)C(=O)N[C@@H](CC(=O)O)C(=O)N[C@@H](CCC(=O)O)C(=O)N[C@@]1(C)CCCC=CCCC[C@@](C)(C(=O)N[C@@H](CC(C)C)C(=O)N[C@H](C(=O)N[C@H](C(=O)N[C@@H](CCC(=O)O)C(=O)N[C@@H](CCSC)C(=O)N[C@@H](C)C(=O)N[C@@H](CC(C)C)C(=O)N[C@@H](CC(=O)O)C(=O)N[C@@H](CCCNC(=N)N)C(=O)N[C@H](C(=O)N[C@@H](CCCCN)C(=O)N[C@@H](CCC(=O)O)C(=O)N[C@@H](CC(C)C)C(=O)N2CCC[C@H]2C(=O)N[C@@H](CCC(=O)O)C(=O)N[C@@H](CC(C)C)C(=O)N[C@@H](Cc2c[nH]c3ccccc23)C(=O)N[C@@H](CC(C)C)C(N)=O)[C@@H](C)CC)[C@@H](C)CC)C(C)C)NC(=O)[C@H](C)NC(=O)[C@H](CC(C)C)NC(=O)[C@H](C(C)C)NC1=O` [SP-112] (Ac-FIDE[S5]VLA[S5]LVIEMALDRIKELPELWL-NH2; staple 5-9) are no more than 200 nM, “++++ (≥30: ++++)”, “+++ (≤25 but <50: +++)” and 5 to 15 µM.
The corresponding values for `CC[C@H](C)[C@H](NC(=O)[C@H](CCCNC(=N)N)NC(=O)[C@H](CC(=O)O)NC(=O)[C@H](CC(C)C)NC(=O)[C@H](C)NC(=O)[C@H](CCSC)NC(=O)[C@H](CCC(=O)O)NC(=O)[C@@H](NC(=O)[C@@H](NC(=O)[C@H](CC(C)C)NC(=O)[C@]1(C)CCCC=CCCC[C@](C)(NC(=O)[C@H](CCC(=O)O)NC(=O)[C@H](CC(=O)O)NC(=O)[C@@H](NC(=O)[C@H](Cc2ccccc2)NC(C)=O)[C@@H](C)CC)C(=O)N[C@@H](C(C)C)C(=O)N[C@@H](CC(C)C)C(=O)N[C@@H](CCSC)C(=O)N1)C(C)C)[C@@H](C)CC)C(=O)N[C@@H](CCCCN)C(=O)N[C@@H](CCC(=O)O)C(N)=O` [SP-113] (Ac-FIDE[S5]VLM[S5]LVIEMALDRIKE-NH2; staple 5-9) are 400 to 700 nM, “++++ (≥30: ++++)”, “++++ (≥50: ++++)” and 5 to 15 µM.
For `CC[C@H](C)[C@H](NC(=O)[C@H](Cc1ccccc1)NC(C)=O)C(=O)N[C@@H](CC(=O)O)C(=O)N[C@@H](CCC(=O)O)C(=O)N[C@@]1(C)CCCC=CCCC[C@@](C)(C(=O)N[C@@H](CC(C)C)C(=O)N[C@H](C(=O)N[C@H](C(=O)N[C@@H](CCC(=O)O)C(=O)N[C@@H](CCSC)C(=O)N[C@@H](C)C(=O)N[C@@H](C)C(N)=O)[C@@H](C)CC)C(C)C)NC(=O)[C@H](CCSC)NC(=O)[C@H](CC(C)C)NC(=O)[C@H](C(C)C)NC1=O` [SP-116] (Ac-FIDE[S5]VLM[S5]LVIEMAA-NH2; staple 5-9) the same measures were greater than 700 nM, “++++ (≥30: ++++)”, “+++ (≤25 but <50: +++)” and greater than 30 µM.
For the compound `CC[C@H](C)[C@H](NC(=O)[C@H](Cc1ccccc1)NC(C)=O)C(=O)N[C@@H](CC(=O)O)C(=O)N[C@@H](CCC(=O)O)C(=O)N[C@@]1(C)CCCC=CCCC[C@@](C)(C(=O)N[C@@H](CC(C)C)C(=O)N[C@H](C(=O)N[C@H](C(=O)N[C@@H](CCC(=O)O)C(=O)N[C@@H](CCSC)C(=O)N[C@@H](C)C(=O)N[C@@H](C)C(=O)N[C@@H](C)C(N)=O)[C@@H](C)CC)C(C)C)NC(=O)[C@H](CCSC)NC(=O)[C@H](CC(C)C)NC(=O)[C@H](C(C)C)NC1=O` [SP-117] (Ac-FIDE[S5]VLM[S5]LVIEMAAA-NH2; staple 5-9), the IC50 in assay [1] is greater than 700 nM. Further, the “Viability 1% FBS AVG” value in assay [2] is “++++ (≥30: ++++)”. Moreover, in assay [3], the “18 h Avg % max inhibition at top conc” value was “+++ (≤25 but <50: +++)” and the EC50 is greater than 30 µM.
For `CCCC[C@@H]1NC(=O)[C@H](CC(C)C)NC(=O)[C@H](C(C)C)NC(=O)[C@@](C)(NC(=O)[C@H](CCC(=O)O)NC(=O)[C@H](CC(=O)O)NC(=O)[C@@H](NC(=O)[C@H](Cc2ccccc2)NC(C)=O)[C@@H](C)CC)CCCC=CCCC[C@@](C)(C(=O)N[C@@H](CC(C)C)C(=O)N[C@H](C(=O)N[C@H](C(=O)N[C@@H](CCC(=O)O)C(=O)N[C@@H](CCSC)C(=O)N[C@@H](C)C(=O)N[C@@H](CC(C)C)C(=O)N[C@@H](CC(=O)O)C(=O)N[C@@H](CCCNC(=N)N)C(=O)N[C@H](C(N)=O)[C@@H](C)CC)[C@@H](C)CC)C(C)C)NC1=O` [SP-118] (Ac-FIDE[S5]VL[Nle][S5]LVIEMALDRI-NH2; staple 5-9) the same measures were no more than 200 nM, “++++ (≥30: ++++)”, “+++ (≤25 but <50: +++)” and 15 to 30 µM.
Turning to `CCCC[C@H](NC(=O)[C@H](CCC(=O)O)NC(=O)[C@@H](NC(=O)[C@@H](NC(=O)[C@H](CC(C)C)NC(=O)[C@]1(C)CCCC=CCCC[C@](C)(NC(=O)[C@H](CCC(=O)O)NC(=O)[C@H](CC(=O)O)NC(=O)[C@@H](NC(=O)[C@H](Cc2ccccc2)NC(=O)[C@H](CCCCN)NC(C)=O)[C@@H](C)CC)C(=O)N[C@@H](C(C)C)C(=O)N[C@@H](CC(C)C)C(=O)N[C@@H](CCCC)C(=O)N1)C(C)C)[C@@H](C)CC)C(=O)N[C@@H](C)C(=O)N[C@@H](CC(C)C)C(N)=O` [SP-134] (Ac-KFIDE[S5]VL[Nle][S5]LVIE[Nle]AL-NH2; staple 6-10), in assay [1], the IC50 fell in the range of 200 to 400 nM. In addition, the “Viability 1% FBS AVG” value in assay [2] is recorded as “++++ (≥30: ++++)”. In addition, in assay [3], the “18 h Avg % max inhibition at top conc” value is recorded as “+++ (≤25 but <50: +++)” and the EC50 was greater than 30 µM.
Turning to `CCCC[C@H](NC(=O)[C@H](CCC(=O)O)NC(=O)[C@@H](NC(=O)[C@@H](NC(=O)[C@H](CC(C)C)NC(=O)[C@]1(C)CCCC=CCCC[C@](C)(NC(=O)[C@H](CCC(=O)O)NC(=O)[C@H](CC(=O)O)NC(=O)[C@@H](NC(=O)[C@H](Cc2ccccc2)NC(C)=O)[C@@H](C)CC)C(=O)N[C@@H](C)C(=O)N[C@@H](CC(C)C)C(=O)N[C@@H](CCCC)C(=O)N1)C(C)C)[C@@H](C)CC)C(=O)N[C@@H](C)C(=O)N[C@@H](CC(C)C)C(N)=O` [SP-138] (Ac-FIDE[S5]AL[Nle][S5]LVIE[Nle]AL-NH2; staple 5-9), the 50% inhibitory concentration (IC50) in assay [1] fell in the range of 200 to 400 nM. Moreover, in assay [2], the “Viability 1% FBS AVG” value is on record as “++++ (≥30: ++++)”. Also, in assay [3], the “18 h Avg % max inhibition at top conc” value is reported as “+++ (≤25 but <50: +++)” and the EC50 is greater than 30 µM.
On to `CCCC[C@H](NC(=O)[C@H](CCC(=O)O)NC(=O)[C@@H](NC(=O)[C@@H](NC(=O)[C@H](CC(C)C)NC(=O)[C@]1(C)CCCC=CCCC[C@](C)(NC(=O)[C@H](CCC(=O)O)NC(=O)[C@H](CC(=O)O)NC(=O)[C@@H](NC(=O)[C@H](Cc2ccccc2)NC(C)=O)[C@@H](C)CC)C(=O)N[C@@H]([C@@H](C)O)C(=O)N[C@@H](CC(C)C)C(=O)N[C@@H](CCCC)C(=O)N1)C(C)C)[C@@H](C)CC)C(=O)N[C@@H](C)C(=O)N[C@@H](CC(C)C)C(N)=O` [SP-139] (Ac-FIDE[S5]TL[Nle][S5]LVIE[Nle]AL-NH2; staple 5-9), for which the IC50 in assay [1] was 400 to 700 nM. In addition, the “Viability 1% FBS AVG” value in assay [2] is reported as “++ (≤5 but <15: ++)”. In addition, in assay [3], the “18 h Avg % max inhibition at top conc” value is “+++ (≤25 but <50: +++)” and the EC50 is greater than 30 µM.
For `CCCC[C@H](NC(=O)[C@H](CCC(=O)O)NC(=O)[C@@H](NC(=O)[C@@H](NC(=O)[C@H](CC(C)C)NC(=O)[C@]1(C)CCCC=CCCC[C@](C)(NC(=O)[C@H](CCC(=O)O)NC(=O)[C@H](CC(=O)O)NC(=O)[C@@H](NC(=O)[C@H](Cc2ccccc2)NC(C)=O)[C@@H](C)CC)C(=O)N[C@@H](CC(N)=O)C(=O)N[C@@H](CC(C)C)C(=O)N[C@@H](CCCC)C(=O)N1)C(C)C)[C@@H](C)CC)C(=O)N[C@@H](C)C(=O)N[C@@H](CC(C)C)C(N)=O` [SP-141] (Ac-FIDE[S5]NL[Nle][S5]LVIE[Nle]AL-NH2; staple 5-9) the same measures were 400 to 700 nM, “++ (≤5 but <15: ++)”, “++++ (≥50: ++++)” and 15 to 30 µM.

The values above are taken from US20190225650A1, “PEPTIDOMIMETIC MACROCYCLES AND USE THEREOF IN REGULATING HIF1ALPHA” (AILERON THERAPEUTICS, INC., priority 2013, published 2019).
